B1: α-keto acid reductase: NADH-dependent α-keto acid reductase purified from Leuconostoc mesenteroides subsp. dextranicum ATCC 17072; amino acid sequence SEQ ID NO: 2 (protein)
chain: MKIAIAGFGALGARLGVMLQAGGHEVTGIDGWPAHIAAINTKGLTVVKDNDAPQKYFVPVMPASEVTGTFDLIILLTKTPQLDRMLTDIQPIITDTTKLLVLSNGLGNIEVMAKHVSRHQILAGVTLWTSSLIKPGEIHVTGSGSIKLQAIGDADVQSIADALNQAGLNAEITPDVMTAIWHKAGINAVLNPLSVLLNANIAEFGTAGNAMDLALNILDEMKQVGASQGIKVDVSGIMTDLSQLLKPENAGNHFPSMYQDIQNGKRTEIDFLNGYFAKIGHESGIPTPFNALVTRLIHAKEDIERVKLAKQQENFEI
modifications: Leuconostoc mesenteroides

Tested on: not given
Assay: not given
Assay type: biochemical, Leuconostoc mesenteroides subsp. dextranicum
Conditions: purification steps from Leuconostoc mesenteroides subsp. dextranicum ATCC 17072, NADH-dependent
Description: Leuconostoc mesenteroides subsp. dextranicum strain (ATCC 17072) was cultured in 1.2 L of MRS medium (Lactobacilli MRS broth, Difco Laboratories), and then cells were harvested by centrifugation. The resulting wet cells were suspended in 50 mM Tris-HCl buffer (pH 8.5) containing 0.02% 2-mercaptoethanol and 2 mM phenylmethanesulfonyl fluoride (PMSF), and crushed with a bead beater (Biospec Products, Inc.). Then, cell debris was removed by centrifugation to prepare cell-free extract. Protamine sulfate was added to the cell-free extract and the mixture was centrifuged to prepare supernatant avoid of nucleic acid. Ammonium sulfate was added to the supernatant at a final concentration of 30%. […] NADH-dependent 2-chlorophenyl glyoxylic acid-reducing activity was detected in fractions eluted with the gradient. […]
2-chlorophenyl glyoxylic acid-reducing activities of the enzyme obtained in Example 9 at various pHs were determined by changing the pH with the use of potassium phosphate buffer, sodium acetate buffer, and Britten and Robinson broad-range buffer. […]
2-chlorophenyl glyoxylic acid-reducing activities of the enzyme obtained in Example 9 were measured under standard reaction conditions at various temperatures. […]

In the case of B1, the Relative activity is reported as 3810 U/mg.

Same assay, conditions: purified enzyme, single band on SDS-PAGE

For B1, the Specific activity was 3,810 U/mg.

Tested on: α-keto acid reductase
Assay: Substrate specificity of α-keto acid reductase (reduction reaction)
Assay type: biochemical, Leuconostoc mesenteroides subsp. dextranicum
Conditions: coenzyme NADH, substrate 1 mM; reduction activity of 2-chlorophenyl glyoxylic acid taken as 100
Description: (§1) The enzyme obtained in Example 9 was incubated with various α-keto acids, ketones, ketols, etc. The activities of the reduction reaction are shown in Table 8, defined as relative activities taking the reduction activity of 2-chlorophenyl glyoxylic acid as 100.

First: O=C(O)C(=O)c1ccccc1Cl [2-chlorophenyl glyoxylic acid]
Second: O=C(O)C(=O)c1ccccc1 [phenyl glyoxylic acid]
The Relative activity of the first is higher: 100.0% for the first, 12.9% for the second.

First: O=C(O)C(=O)c1cccc(Cl)c1 [3-chlorophenyl glyoxylic acid]
Second: O=C(O)C(=O)Cc1ccccc1 [α-keto-4-phenylpyruvic acid]
The Relative activity of the first is higher: 4.5% for the first, 0.1% for the second.

Compared with `CC(=O)C(=O)O` [pyruvic acid], `CCC(=O)C(=O)O` [α-ketobutyric acid] is higher in Relative activity: 0.0% for the first, 0.4% for the second.

Going from `CC(C)(C)C(=O)C(=O)O` [trimethyl pyruvic acid] to `CC(C)C(=O)C(=O)O` [α-ketoisovaleric acid], the Relative activity rises from 0.1% to 19.3%.

Going from `CCCCC(=O)C(=O)O` [α-ketocaproic acid] to `CCCC(=O)C(=O)O` [α-ketovaleric acid], the Relative activity falls from 4.3% to 3.1%.

Going from `CC(C)CC(=O)C(=O)O` [α-ketoisocaproic acid] to `O=C(O)C(=O)Cc1ccccc1` [β-phenylpyruvic acid], the Relative activity falls from 14.7% to 0.3%.

Same assay, conditions: coenzyme NADH, substrate 5 mM; reduction activity of 2-chlorophenyl glyoxylic acid taken as 100

Work on `CC(C)(CO)C(=O)C(=O)O` [keto pantoic acid] yielded a Relative activity of 3.1%.

Same assay, conditions: coenzyme NADPH, substrate 1 mM; NADH reduction of 2-chlorophenyl glyoxylic acid taken as 100

`O=C(O)C(=O)c1ccccc1Cl` [2-chlorophenyl glyoxylic acid] gave a Relative activity of 0.4%.

Tested on: α-keto acid reductase
Assay: Dehydrogenase activity of α-keto acid reductase against 2-chloromandelic acid
Assay type: biochemical, Leuconostoc mesenteroides subsp. dextranicum
Conditions: coenzyme NAD^+, substrate 1 mM; reduction activity of 2-chlorophenyl glyoxylic acid taken as 100
Description: In the present invention, the dehydrogenase activity against 2-chloromandelic acid of an enzyme can be confirmed by the following assay procedure:incubate the enzyme at 30° C. in a reaction solution of 50 mM Tris-HCl buffer (pH 8.5) containing 2.5 mM NAD^+, and 1 mM 2-chloromandelic acid; and measure the increase in absorbance at 340 nm associated with the generation of NADH. 1 U is defined as an amount of enzyme that catalyzes the production of 1 μmol NADH in one minute.
as §1

Going from `O=C(O)C(O)c1ccccc1Cl` (racemic) [(R,S)-2-chloromandelic acid] to `O=C(O)[C@H](O)c1ccccc1Cl` [(R)-2-chloromandelic acid], the Relative activity rises from 0.022% to 0.045%.

Reference: patent US7250278B2, “α-keto acid reductase, method for producing the same, and method for producing optically active α-hydroxy acids using the same” (Daicel Chemical Industries, Ltd., priority 2002, dated 2007)
